The target in the experiment is T1, Androgen Receptor (Homo sapiens, UniProt P10275, T878A).
T1 construct: the AR gene was modified, using CRISPR/Cas9 editing, so the expressed AR protein included an 11 amino acid HiBiT tag; endogenous in cells; host or cells: clonal LnCaP-derived line, AR gene edited by CRISPR/Cas9
Briefly: Androgen Receptor Degradation Assay (Nano-Glo HiBiT). The experiment is classed as cell-based. As to conditions: LNCaP, 18 h, HiBiT-tagged AR in human LnCaP cells, read-out: mean asymptote max. As for the experimental part: Degradation of Androgen Receptor protein in human LnCaP cells treated with PROTACs was quantified using the Nano-Glo® HiBiT Lytic Detection System (Promega) in 384 well assay plate format. A clonal LnCaP derived cell line was first established in which the AR gene was modified, using CRISPR/Cas9 editing, so the expressed AR protein included an 11 amino acid HiBiT tag at its amino-terminus. 10 mM DMSO stock solutions of PROTACs were prepared and diluted across an 11 concentration, 3 fold increment range, and 25 nL dispensed into a white opaque bottomed 384 well assay plate (Thermofisher) using an acoustic ECHO dispenser (Labcyte). […] For the assay, cells were detached from flask and resuspended with assay medium (FluoroBrite™ DMEM supplemented with 10% heat inactivated FBS, penicillin 50 U/mL and streptomycin 50 ug/mL (Thermofisher)). The cell suspension was centrifuged at 400 g for 5 min and the pellet resuspended in assay medium. 25 μL of cell suspension containing 10,000 cells was dispensed into each well of the assay plate containing the test compounds, which was then incubated for 18 h at 37° C./5% CO2. Control wells were included on each assay plate, with assay medium without cells being the no AR remaining 100% effect control, and cells treated with DMSO vehicle only, without PROTAC, the 0% effect control. 25 μL of Nano-Glo® HiBiT lysis buffer supplemented with LgBiT protein and Nano-Glo® substrate (Promega) was added to each well and the plate shaken at 500 rpm for 10 min at room temperature. The intensity of luminescence was measured using a PHERAstar microplate reader (BMG Labtech) and the % AR protein remaining in each well calculated by normalising the raw luminescence value to the above control wells. Parameters corresponding to the potency and efficacy estimates of the PROTACs were obtained from these normalised luminescence values using software (IDBS ActivityBase). These included the DC50 and the Dmax estimates. Two versions of the DC50, called relative DC50 and absolute DC50, were typically generated. These are the inflection point of a fitted 4 parameter sigmoidal response curve and the interpolated concentration of PROTAC corresponding to 50% of the protein being degraded, respectively. The Dmax parameter was the maximum experimentally observed degradation and the asymptote max parameter the fitted response curve asymptote maximum.
(With HiBiT, luminescence reflects the tagged protein that the partner subunit can reach.)

Structures can show the parent of a compound that is named as a salt. Some results are limits rather than exact numbers.

T1 sequence (P10275 whole entry T878A): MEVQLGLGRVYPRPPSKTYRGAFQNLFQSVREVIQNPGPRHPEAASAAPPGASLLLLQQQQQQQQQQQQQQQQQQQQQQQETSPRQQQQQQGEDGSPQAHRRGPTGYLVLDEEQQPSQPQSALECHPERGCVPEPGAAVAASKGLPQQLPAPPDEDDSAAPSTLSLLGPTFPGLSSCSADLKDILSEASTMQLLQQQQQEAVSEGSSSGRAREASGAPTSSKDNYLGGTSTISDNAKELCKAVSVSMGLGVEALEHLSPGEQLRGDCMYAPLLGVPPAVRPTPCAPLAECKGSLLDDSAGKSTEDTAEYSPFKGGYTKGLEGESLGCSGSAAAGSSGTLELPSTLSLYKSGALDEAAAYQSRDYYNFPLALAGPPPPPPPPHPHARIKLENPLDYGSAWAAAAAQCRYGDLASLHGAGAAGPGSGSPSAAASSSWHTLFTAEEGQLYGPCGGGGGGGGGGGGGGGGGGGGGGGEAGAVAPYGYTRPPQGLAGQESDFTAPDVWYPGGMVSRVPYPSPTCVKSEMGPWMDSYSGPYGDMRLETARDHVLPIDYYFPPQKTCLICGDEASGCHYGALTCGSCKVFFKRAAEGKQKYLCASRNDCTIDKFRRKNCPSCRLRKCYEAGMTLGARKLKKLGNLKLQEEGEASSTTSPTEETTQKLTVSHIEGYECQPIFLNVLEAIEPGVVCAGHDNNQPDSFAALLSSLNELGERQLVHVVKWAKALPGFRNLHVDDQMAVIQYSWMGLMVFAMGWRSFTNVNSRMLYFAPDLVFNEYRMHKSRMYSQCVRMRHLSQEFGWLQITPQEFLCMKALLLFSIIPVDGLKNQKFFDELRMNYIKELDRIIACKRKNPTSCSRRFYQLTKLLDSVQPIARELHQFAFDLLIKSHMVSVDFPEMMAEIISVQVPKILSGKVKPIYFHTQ
T1 sequence (Q96SW2 whole entry partner): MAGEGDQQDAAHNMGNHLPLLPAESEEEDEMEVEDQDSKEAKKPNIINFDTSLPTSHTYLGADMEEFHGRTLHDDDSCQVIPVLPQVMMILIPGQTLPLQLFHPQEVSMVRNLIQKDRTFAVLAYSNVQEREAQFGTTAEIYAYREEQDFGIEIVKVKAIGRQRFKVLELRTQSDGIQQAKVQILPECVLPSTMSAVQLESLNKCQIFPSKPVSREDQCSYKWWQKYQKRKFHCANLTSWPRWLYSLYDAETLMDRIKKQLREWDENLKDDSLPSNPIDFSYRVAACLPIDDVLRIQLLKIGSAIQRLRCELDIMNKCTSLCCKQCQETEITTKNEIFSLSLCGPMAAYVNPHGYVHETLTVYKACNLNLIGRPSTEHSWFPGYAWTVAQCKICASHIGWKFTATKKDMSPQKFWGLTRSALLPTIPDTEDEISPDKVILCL
T1 sequence (Q16531 whole entry partner): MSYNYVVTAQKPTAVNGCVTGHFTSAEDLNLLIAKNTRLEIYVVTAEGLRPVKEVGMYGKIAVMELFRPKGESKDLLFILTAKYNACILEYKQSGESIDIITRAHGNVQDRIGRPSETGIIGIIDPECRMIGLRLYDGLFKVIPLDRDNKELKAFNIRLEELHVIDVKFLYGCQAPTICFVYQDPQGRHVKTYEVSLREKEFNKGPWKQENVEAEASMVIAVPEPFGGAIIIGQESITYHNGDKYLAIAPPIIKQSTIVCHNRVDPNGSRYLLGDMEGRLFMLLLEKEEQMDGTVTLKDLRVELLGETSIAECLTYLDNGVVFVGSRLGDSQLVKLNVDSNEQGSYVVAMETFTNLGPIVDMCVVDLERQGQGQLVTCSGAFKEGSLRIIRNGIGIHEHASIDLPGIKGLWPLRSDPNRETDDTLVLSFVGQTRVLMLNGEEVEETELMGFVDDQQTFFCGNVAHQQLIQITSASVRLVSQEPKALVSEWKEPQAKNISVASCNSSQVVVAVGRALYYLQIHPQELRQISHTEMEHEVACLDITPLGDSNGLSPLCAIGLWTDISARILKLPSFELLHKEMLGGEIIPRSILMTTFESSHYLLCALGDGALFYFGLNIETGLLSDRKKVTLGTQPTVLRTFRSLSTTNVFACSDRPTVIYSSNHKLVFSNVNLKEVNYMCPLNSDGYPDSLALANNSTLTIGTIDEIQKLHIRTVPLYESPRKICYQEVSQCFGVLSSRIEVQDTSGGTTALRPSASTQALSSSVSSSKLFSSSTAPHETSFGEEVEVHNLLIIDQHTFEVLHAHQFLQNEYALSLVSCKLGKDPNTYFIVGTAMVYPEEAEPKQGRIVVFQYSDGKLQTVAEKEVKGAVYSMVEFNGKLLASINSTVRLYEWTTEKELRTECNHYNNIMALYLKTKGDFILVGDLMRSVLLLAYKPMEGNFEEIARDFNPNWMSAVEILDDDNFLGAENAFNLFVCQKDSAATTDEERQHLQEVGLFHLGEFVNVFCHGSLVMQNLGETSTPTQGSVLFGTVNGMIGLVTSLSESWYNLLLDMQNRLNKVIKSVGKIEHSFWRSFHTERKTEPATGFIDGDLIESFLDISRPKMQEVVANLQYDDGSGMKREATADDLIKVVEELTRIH

For `N#Cc1ccc(O[C@H]2CC[C@H](NC(=O)c3ccc(N4CCC(CN5CCC(n6ccc7c(N8CCC(=O)NC8=O)ncnc76)CC5)CC4)cc3)CC2)cc1Cl` [EAR195, N-((1r,4r)-4-(3-chloro-4-cyanophenoxy)cyclohexyl)-4-(4-((4-(4-(2,4-dioxotetrahydropyrimidin-1(2H)-yl)-7H-pyrrolo[2,3-d]pyrimidin-7-yl)piperidin-1-yl)methyl)piperidin-1-yl)benzamide hydrochloride], the Dmax was not below 50%. Under `C[C@@H]1CN(c2ccc(C#N)c(Cl)c2)[C@@H](C)CN1C(=O)c1ccc(N2CCC(CN3CCC(n4ncc5c(N6CCC(=O)NC6=O)cncc54)CC3)CC2)nn1` [EAR146, 2-Chloro-4-((2S,5R)-4-(6-(4-((4-(4-(2,4-dioxotetrahydropyrimidin-1(2H)-yl)-1H-pyrazolo[3,4-c]pyridin-1-yl)piperidin-1-yl)methyl)piperidin-1-yl)pyridazine-3-carbonyl)-2,5-dimethylpiperazin-1-yl)benzonitrile] stands not below 50%; under `N#Cc1ccc(O[C@H]2CC[C@H](NC(=O)c3ccc(N4CCC(C#N)(CCN5CCC(n6ncc7c(N8CCC(=O)NC8=O)cccc76)CC5)CC4)nn3)CC2)cc1Cl` [EAR221, N-((1r,4r)-4-(3-chloro-4-cyanophenoxy)cyclohexyl)-6-(4-cyano-4-(2-(4-(4-(2,4-dioxotetrahydropyrimidin-1(2H)-yl)-1H-indazol-1-yl)piperidin-1-yl)ethyl)piperidin-1-yl)pyridazine-3-carboxamide], not below 50%. Under `N#Cc1ccc(O[C@H]2CC[C@H](NC(=O)c3ccc(N4CCC(CN5CCC(n6ccc7c(N8CCC(=O)NC8=O)cccc76)CC5)CC4)nn3)CC2)cc1C(F)(F)F` [EAR24, N-((1r,4r)-4-(4-Cyano-3-(trifluoromethyl)phenoxy)cyclohexyl)-6-(4-((4-(4-(2,4-dioxotetrahydropyrimidin-1(2H)-yl)-1H-indol-1-yl)piperidin-1-yl)methyl)piperidin-1-yl)pyridazine-3-carboxamide] stands not below 50%. For `N#Cc1ccc(O[C@H]2CC[C@H](NC(=O)c3ccc(N4CCC(CN5CCC(n6ncc7c(N8CCC(=O)NC8=O)cccc76)CC5)CC4)nn3)CC2)cc1Cl` [EAR43, N-((1r,4r)-4-(3-Chloro-4-cyanophenoxy)cyclohexyl)-6-(4-((4-(4-(2,4-dioxotetrahydropyrimidin-1(2H)-yl)-1H-indazol-1-yl)piperidin-1-yl)methyl)piperidin-1-yl)pyridazine-3-carboxamide] the value was not below 50%. In the case of `CC1(C)[C@H](NC(=O)c2ncc(N3CCC(CN4CCC(n5ncc6c(N7CCC(=O)NC7=O)ccnc65)CC4)CC3)cn2)C(C)(C)[C@H]1Oc1ccc(C#N)c(Cl)c1` [EAR272, N-((1r,3r)-3-(3-Chloro-4-cyanophenoxy)-2,2,4,4-tetramethylcyclobutyl)-5-(4-((4-(4-(2,4-dioxotetrahydropyrimidin-1(2H)-yl)-1H-pyrazolo[3,4-b]pyridin-1-yl)piperidin-1-yl)methyl)piperidin-1-yl)pyrimidine-2-carboxamide], the Dmax is not below 50%. `CC1(C)C(=O)N(c2ccc(C#N)c(C(F)(F)F)c2)C(=S)N1c1ccc(N2CCC(CCN3CCC(n4ncc5c(N6CCC(=O)NC6=O)cncc54)CC3)CC2)cc1` [EAR97, 4-(3-(4-(4-(2-(4-(4-(2,4-Dioxotetrahydropyrimidin-1(2H)-yl)-1H-pyrazolo[3,4-c]pyridin-1-yl)piperidin-1-yl)ethyl)piperidin-1-yl)phenyl)-4,4-dimethyl-5-oxo-2-thioxoimidazolidin-1-yl)-2-(trifluoromethyl)benzonitrile formate]: the Dmax is not below 50%. As to `CN(c1ccc(C#N)c(Cl)c1)[C@H]1CC[C@H](NC(=O)c2ccc(N3CCC(CN4CCC(n5ccc6c(N7CCC(=O)NC7=O)cc(F)cc65)CC4)CC3)nn2)CC1` [EAR201, N-((1r,4r)-4-((3-Chloro-4-cyanophenyl)(methyl)amino)cyclohexyl)-6-(4-((4-(4-(2,4-dioxotetrahydropyrimidin-1(2H)-yl)-6-fluoro-1H-indol-1-yl)piperidin-1-yl)methyl)piperidin-1-yl)pyridazine-3-carboxamide hydrochloride], the Dmax was not below 50%.

The values are drawn from patent US20250205344A1, “2,4-DIOXOTETRAHYDROPYRIMIDINYL DERATIVES AS DEGRONS IN PROTACS” (GLAXOSMITHKLINE INTELLECTUAL PROPERTY DEVELOPMENT LIMITED, priority 2022, published 2025).
